From US20020006436A1, “USE OF A LIQUID CRYSTALLINE PHASE FOR DETERMINING THE DISTRIBUTION OF A CHEMICAL SUBSTANCE BETWEEN A HYDROPHOBIC AND A HYDROPHILIC ENVIRONMENT” (priority 1996, published 2002)
Like-named read-outs stand apart in the source and are kept apart here.

Key:
[1] = Distribution of lidocaine, cubic phase/water, water solution added after the cubic phase has been formed; format: physicochemical; settings: for [X]w: cubic phase formed 24 h at 37° C., then further 24 h
[2] = Distribution of lidocaine, cubic phase/water, simultaneous addition of all the water solution; format: physicochemical; settings: for [X]w: 24 h; for [X]w / Kbl/w: simultaneous addition
Description: wherein [X]lipid/[X]water is the concentration of a substance X in the lipid and the water portion of the system, respectively. In order to be able to determine Kbl/w several methods can be applied. […] Kbl/w ={[…] which [X]w is the concentration of X in the water phase at equilibrium. […] Then 0.5 ml of the respective buffer solution was added to the vials.

[3] = for [X]w: 72 h; for Kbl/w: equation 2, 72 h
Source text: wherein [X]lipid/[X]water is the concentration of a substance X in the lipid and the water portion of the system, respectively. In order to be able to determine Kbl/w several methods can be applied. If vlipid is the lipid volume, v1 is the volume of water solution without the substance X, and v2 is the volume of water solution with the substance X in a concentration of [X]0 mol/liter, the distribution coefficient can be expressed as
Kbl/w ={v2([X]0−[X]w)/[X]w−v1}/vlipid (2),
in which [X]w is the concentration of X in the water phase at equilibrium. Equation 2 can be used if only the water phase and not the lipid phase is analyzed with reference to its content of X.
Glyceryl monooleate, 2 ml, was weighed into three vials, 6 ml of a water solution with 0.033, 0.067, or 0.10 mol NaCl per liter then being added to one of the three vials.
After 72 h the NaCl contents in the three vials were determined by means of conductometrical analysis of the water phases. In this example the constants were vlipid=2 ml, v1=0 ml, and v2=6 ml. The distribution coefficient Kbl/w was calculated by means of equation 2.

[4] = Distribution of clomethiazole between glyceryl monooleate cubic phase bilayer and water phase (water or citrate buffer); format: physicochemical; settings: 120 h; for Kbl/w, eq. (4) / kbl/w, eq. (4): fw=0.4
Description: The distribution of a substance X between lipids and water in the system is depicted by the following distribution coefficient.
Kbilayer/water=Kbl/w=[X]lipid/[X]water (1),
If both the water phase and the cubic phase are analyzed with reference to their content of the substance X the following distribution coefficient can be determined Kcubic phase/water=KQ/w=[X]Q/[X]w (3), in which [X]Q is the concentration of X in the cubic phase. A relationship between Kbl/w and KQ/w can be derived if the volumetric portion of water in the cubic phase as well as the concentration of X in the water domain of the cubic phase are known. The former can be determined by means of X-ray diffraction. If it is assumed that the concentration of X in the water domain in the cubic phase is [X]w, i.e. the same as in the water phase, the following relationship can be obtained […]
Kbl/w={KQ/w−fw}/{1−fw} (4) in which fw is a volumetric portion of water in the cubic phase.
Clomethiazole (CMZ) is a drug which at a low pH exists in a charged state and at a high pH in a neutral stage. Glyceryl monooleate (Grindsted/Danisco A/S, Brabrand, Denmark), 0.74 ml, was added to each of six vials. Then 0.3 ml water was added to three of the vials, and 0.3 ml citrate buffer, pH 3.4, was added to the remaining three vials. The cubic phase was allowed to be formed overnight. Then 1.0 ml of solutions with different concentrations of CMZ were added to each of the vials.
The contents were analyzed after 120 h with reference to CMZ in the water phase as well as the cubic phase. In this example the constants were vlipid=0.74 ml, v1=0.3 ml, v2=1.0 ml, and fw=0.4. The distribution coefficients Kbl/w were calculated by means of the equations (2) and (4).

[5] = citrate buffer pH 3.4, system I, [X]0 0.28 mg/ml
[6] = citrate buffer pH 3.4, system II, [X]0 1.5 mg/ml
[7] = citrate buffer pH 3.4, system III, [X]0 3.0 mg/ml
[8] = water, system I, [X]0 0.28 mg/ml
[9] = water, system II, [X]0 1.5 mg/ml
[10] = water, system III, [X]0 3.0 mg/ml

## CCN(CC)CC(=O)Nc1c(C)cccc1C [Lidocaine]
[1]; pH 4, [X]0 1.00 mg/ml
  [X]w: 0.66 mg/mL
[1]; pH 4, equation 2, solution added after cubic phase formed
  Kbl/w: 0.8
[1]; pH 7, [X]0 1.00 mg/ml
  [X]w: 0.22 mg/mL
[1]; pH 7, equation 2, solution added after cubic phase formed
  Kbl/w: 8.4
[1]; pH 10, [X]0 1.00 mg/ml
  [X]w: 0.073 mg/mL
[1]; pH 10, equation 2, solution added after cubic phase formed
  Kbl/w: 31.2
[2]; charged form, from pH 4
  Kbl/w(charged): 0.7
[2]; pH 4, [X]0 1.00 mg/ml
  [X]w: 0.68 mg/mL
[2]; pH 4, equation 2, 24 h
  Kbl/w: 0.7
[2]; pH 7, [X]0 1.00 mg/ml
  [X]w: 0.21 mg/mL
[2]; pH 7, equation 2, 24 h
  Kbl/w: 8.9
[2]; pH 10, [X]0 1.00 mg/ml
  [X]w: 0.073 mg/mL
[2]; pH 10, equation 2, 24 h
  Kbl/w: 31.2
[2]; uncharged form, from pH 10
  Kbl/w(uncharged): 31.2

## [Cl-].[Na+] [NaCl]
[3]; [X]0 0.033 mol/liter
  [X]w: 0.036 mol/L
  Kbl/w: −0.25
[3]; [X]0 0.067 mol/liter
  [X]w: 0.071 mol/L
  Kbl/w: −0.17
[3]; [X]0 0.100 mol/liter
  [X]w: 0.106 mol/L
  Kbl/w: −0.17

## Cc1ncsc1CCCl [Clomethiazole]
[4]; [5]
  Kbl/w, eq. (2): 28.4
  [X]w, concentration in the water phase at equilibrium: 0.014 mg/mL
  citrate, [X]Q, concentration in the cubic phase: 0.243 mg/mL
  Kbl/w, eq. (4): 28.2
[4]; [6]
  Kbl/w, eq. (2): 32.0
  [X]w, concentration in the water phase at equilibrium: 0.067 mg/mL
  citrate, [X]Q, concentration in the cubic phase: 1.188 mg/mL
  Kbl/w, eq. (4): 28.9
[4]; [7]
  Kbl/w, eq. (2): 31.5
  [X]w, concentration in the water phase at equilibrium: 0.136 mg/mL
  citrate, [X]Q, concentration in the cubic phase: 2.366 mg/mL
  Kbl/w, eq. (4): 28.3
[4]; [8]
  Kbl/w, eq. (2): 57.0
  [X]Q, concentration in the cubic phase: 0.243 mg/mL
  [X]w, concentration in the water phase at equilibrium: 0.0072 mg/mL
  kbl/w, eq. (4): 55.6
[4]; [9]
  Kbl/w, eq. (2): 57.9
  [X]Q, concentration in the cubic phase: 1.286 mg/mL
  [X]w, concentration in the water phase at equilibrium: 0.038 mg/mL
  kbl/w, eq. (4): 55.7
[4]; [10]
  Kbl/w, eq. (2): 57.9
  [X]Q, concentration in the cubic phase: 2.463 mg/mL
  [X]w, concentration in the water phase at equilibrium: 0.076 mg/mL
  kbl/w, eq. (4): 53.3
